Reference: US11136339B2, “Dihydroartemisinin diploid derivative, pharmaceutical composition thereof, and application” (priority 2017, dated 2021)
≈ marks a conversion by molar mass, not a printed value.

Legend:
[1] = Solubility in water; assay type: physicochemical; conditions: 20 °C
Method: 0.1 g of product B was dissolved in 20 mL of dichloromethane, added with 10 ml of TFA and 1 mL of triisopropylsilane, and reacted at 25° C. for 2 h. A reaction solution was diluted to 50 mL with dichloromethane, washed three times with saturated NaHCO3, and dried with Na2SO4, and a solvent was evaporated by rotation to obtain crude products. The crude product was purified by silica gel column (a mobile phase was dichloromethane: methanol/65:25) to obtain product of dihydroartemisinin dithiodiglycolic acid dimer carboxyl betaine. […] MS: [M+H]^+ 1039.27.

[2] = test system: MCF-7: human breast cancer cells; assay: Human cancer cell killing test by MTT method, MCF-7; assay type: cell-based; conditions: MCF7, 96 h, read-out: IC50 MCF-7
Method: (§1) Well-growing tumor cells were collected, a RPM11640 medium containing 10% fetal bovine serum was used to prepare […] cell suspension, the tumor cells were inoculated in a 96-well culture plate, and 100 μL of the cell suspension (containing 1000 tumor cells) was added into each well, cultured in 5% CO2 incubator at 37° C. for 24 h, and then added with drugs (see Table 2). Blank control and solvent control were set in the experiment, and tested samples were set with four concentrations, with three parallel wells for each concentration, and cultured in 5% CO2 incubator at 37° C. for 4 days. A culture solution was discarded, and 100 μL of MTT solution (0.4 mg/mL, RPM11640 preparation) was added into each well and incubated at 37° C. for 4 h. A supernatant was discarded, 150 μL of […] was added into each well to dissolve particles, and after slight shaking, an OD value was measured at a detection wavelength of 540 nm and a reference wavelength of 450 nm with a 550 microplate reader.
(§2) Result calculation: a dose-response curve can be obtained by plotting different concentrations of drugs and inhibition rates to cells, from which the median inhibitory concentration (IC50) can be obtained, and results are shown in Table 2. […] This is probably because that the artesunate is released slowly. […]

[3] = in vivo; conditions: female, BALB/c, mouse, iv, 10 mg/kg
Method: BALB/c mice (female, five weeks, 20 g to 22 g) were divided into four groups (three mice in each group). […] A PBS solution of drugs was injected through tail vein.
Blood samples were respectively taken at predetermined times (0.25 h, 0.5 h, 1 h, 3 h, 6 h, 12 h, 24 h and 48 h) and centrifuged at 3,000 rpm for 10 min to obtain plasma.

[4] = test system: human erythrocyte infected by plasmodium strain (3D7); assay: Plasmodium killing test, SYBR Green I fluorescence method; assay type: cell-based; conditions: 3D7, Erythrocyte, 48 h, read-out: median inhibitory concentration IC50 for killing plasmodium
Method: Method: a plasmodium killing effect of a sample measured by a SYBR Green I fluorescence method
Material: human erythrocyte infected by plasmodium strain (3D7) (0.5% parasitemia), RPMI 1640 complete medium, and carbon dioxide incubator (5% CO2, 5% O2, equilibrium N2, and 37° C.)
The medium was blank. The erythrocytes were incubated in a carbon dioxide incubator for 48 h (37° C.).

[5] = test system: HL-60: human promyelocytic leukemia cells; assay: Human cancer cell killing test by MTT method, HL-60; assay type: cell-based; conditions: HL-60, 96 h, read-out: IC50 HL-60
Method: as §1, §2

[6] = test system: HeLa:; assay: Human cancer cell killing test by MTT method, HeLa; assay type: cell-based; conditions: 96 h, read-out: IC50 HeLa
Method: as §1, §2

[7] = test system: Hep G2: human liver cancer cells; assay: Human cancer cell killing test by MTT method, Hep G2; assay type: cell-based; conditions: HepG2, 96 h, read-out: IC50 Hep G2
Method: as §1, §2

[8] = test system: A549: human lung adenocarcinoma cells; assay: Human cancer cell killing test by MTT method, A549; assay type: cell-based; conditions: A549, 96 h, read-out: IC50 A549
Method: as §1, §2

[9] = In-vivo toxicity test of a mouse, oral administration; conditions: ICR mouse, male
Text: Animal: ICR mouse, male, 18 g to 22 g, purchased from Vital River Laboratory Animal Technology Co., Ltd.

Structure (SMILES): C[C@H]1[C@H](OC(=O)CCC(=O)O)O[C@@H]2O[C@@]3(C)CC[C@H]4[C@H](C)CC[C@@H]1[C@@]24OO3 [Artesunate]
- solubility [1]: 360 µg/mL (≈ 936 µM)
- IC50 [2]: 150 µg/mL (≈ 390 µM)
- AUC(0-t) [3]: 80700 ng·h/mL
- Cmax [3]: 23400 ng/mL
- MRT last [3]: 2.71 h
- clearance [3]: 3.73 mL/min/kg
- half-life [3]: 1.52 h
- IC50 [4]: 10.3 nM
- IC50 [5]: 130 µg/mL (≈ 338 µM)
- IC50 [6]: 130 µg/mL (≈ 338 µM)
- IC50 [7]: 100 µg/mL (≈ 260 µM)
- IC50 [8]: 110 µg/mL (≈ 286 µM)

Structure (SMILES): C[C@H]1[C@@H](O)O[C@@H]2O[C@@]3(C)CC[C@H]4[C@H](C)CC[C@@H]1[C@@]24OO3 [Dihydroartemisinin]
- Oral median lethal dose [9]: 810 mg/kg weight
